In brackets after ≈: the same amount, converted by molar mass. Activity calls are given as the source filed them. No cut-off for these calls is given here.
Tests used:
[1] = Inhibition beta lactamase PDC-1 in Pseudomonas aeruginosa PAO1 using nitrocefin as substrate measured by 96 well microtitre plate
[2] = test system: Pseudomonas aeruginosa PAO1; assay: Inhibition of beta lactamase PDC-1 in Pseudomonas aeruginosa PAO1 assessed as reduction in enzyme activity using nitrocefin as chromogenic substrate preincubated for 10 min using 96 well microtiter plate
[3] = test system: Pseudomonas aeruginosa PAO1; assay: Inhibition of beta-lactamase activity in Pseudomonas aeruginosa PAO1 deltaDdeltsDh2deltaDh3 assessed as MIC for cefpodoxime antibacterial activity at 4 mg/L by broth microdilution method
[4] = test system: Pseudomonas aeruginosa PAO1; assay: Inhibition beta lactamase PDC-1 in Pseudomonas aeruginosa PAO1 assessed half life of nitrocefin substrate measured by 96 well microtitre plate assay
[5] = test system: Pseudomonas aeruginosa PAO1; assay: Inhibition of beta-lactamase activity in Pseudomonas aeruginosa PAO1 deltaC+pUCP-(PDC-1) assessed as MIC for cefpodoxime antibacterial activity at 4 mg/L by broth microdilution method
[6] = test system: Pseudomonas aeruginosa PAO1; assay: Inhibition of beta-lactamase activity in Pseudomonas aeruginosa PAO1 53/22-113 (ST-244) assessed as MIC for cefpodoxime antibacterial activity at 4 mg/L by broth microdilution method
[7] = test system: Pseudomonas aeruginosa PAO1; assay: Inhibition of beta-lactamase activity in Pseudomonas aeruginosa PAO1 PAHUAC-27(ST-22) assessed as MIC for cefpodoxime antibacterial activity at 4 mg/L by broth microdilution method
[8] = test system: Pseudomonas aeruginosa PAO1; assay: Inhibition of beta-lactamase activity in Pseudomonas aeruginosa PAO1 deltaampD assessed as MIC for cefpodoxime antibacterial activity at 16 mg/L by broth microdilution method
[9] = test system: Pseudomonas aeruginosa; assay: Inhibition of beta lactamase PDC-1 in Pseudomonas aeruginosa PAO1 for 30 min using MALDI TOF-MS analysis
[10] = test system: Pseudomonas aeruginosa PAO1; assay: Inhibition of beta-lactamase activity in Pseudomonas aeruginosa PAO1 deltadacBdeltaampD assessed as MIC for cefpodoxime antibacterial activity at 16 mg/L by broth microdilution method
[11] = test system: Pseudomonas aeruginosa PAO1; assay: Inhibition of beta-lactamase activity in Pseudomonas aeruginosa PAO1 PAHUAC-27(ST-22) assessed as MIC for cefpodoxime antibacterial activity at 16 mg/L by broth microdilution method
[12] = test system: Pseudomonas aeruginosa PAO1; assay: Inhibition of beta-lactamase activity in Pseudomonas aeruginosa PAO1 deltadacBdeltapbpGdeltadacC assessed as MIC for cefpodoxime antibacterial activity at 4 mg/L by broth microdilution method
[13] = test system: Pseudomonas aeruginosa PAO1; assay: Inhibition of beta-lactamase activity in Pseudomonas aeruginosa PAO1 PAHUAC-14 (ST-966) assessed as MIC for cefpodoxime antibacterial activity at 16 mg/L by broth microdilution method
[14] = test system: Pseudomonas aeruginosa PAO1; assay: Inhibition of beta-lactamase activity in Pseudomonas aeruginosa PAO1 6/04-224 (ST-175) assessed as MIC for cefpodoxime antibacterial activity at 4 mg/L by broth microdilution method
[15] = test system: Pseudomonas aeruginosa PAO1; assay: Inhibition of beta-lactamase activity in Pseudomonas aeruginosa PAO1 17/14-017 (ST-235) assessed as MIC for cefpodoxime antibacterial activity at 16 mg/L by broth microdilution method
[16] = test system: Pseudomonas aeruginosa PAO1; assay: Inhibition of beta-lactamase activity in Pseudomonas aeruginosa PAO1 13/09-018 (ST-175) assessed as MIC for cefpodoxime antibacterial activity at 4 mg/L by broth microdilution method
[17] = test system: Pseudomonas aeruginosa PAO1; assay: Inhibition of beta-lactamase activity in Pseudomonas aeruginosa PAO1 deltaC+pUCP-(PDC-1) assessed as MIC for cefpodoxime antibacterial activity at 16 mg/L by broth microdilution method
[18] = test system: Pseudomonas aeruginosa PAO1; assay: Inhibition beta lactamase PDC-1 in Pseudomonas aeruginosa PAO1 assessed as ratio of kinact/K1 using nitrocefin as substrate measured by 96 well microtitre plate
[19] = test system: Pseudomonas aeruginosa PAO1; assay: Inhibition of beta-lactamase activity in Pseudomonas aeruginosa PAO1 deltadacBdeltapbpGdeltadacC assessed as MIC for cefpodoxime antibacterial activity at 16 mg/L by broth microdilution method
[20] = test system: Pseudomonas aeruginosa PAO1; assay: Inhibition of beta-lactamase activity in Pseudomonas aeruginosa PAO1 17/14-017 (ST-235) assessed as MIC for cefpodoxime antibacterial activity at 4 mg/L by broth microdilution method
[21] = test system: Pseudomonas aeruginosa PAO1; assay: Inhibition of beta-lactamase activity in Pseudomonas aeruginosa PAO1 6/04-224 (ST-175) assessed as MIC for cefpodoxime antibacterial activity at 16 mg/L by broth microdilution method
[22] = test system: Pseudomonas aeruginosa PAO1; assay: Inhibition of beta-lactamase activity in Pseudomonas aeruginosa PAO1 deltaampD assessed as MIC for cefpodoxime antibacterial activity at 4 mg/L by broth microdilution method
[23] = test system: Pseudomonas aeruginosa PAO1; assay: Inhibition of beta-lactamase activity in Pseudomonas aeruginosa PAO1 deltadacB assessed as MIC for cefpodoxime antibacterial activity at 16 mg/L by broth microdilution method
[24] = test system: Pseudomonas aeruginosa PAO1; assay: Inhibition of beta-lactamase activity in Pseudomonas aeruginosa PAO1 36/14-210 (ST-235) assessed as MIC for cefpodoxime antibacterial activity at 16 mg/L by broth microdilution method
[25] = test system: Pseudomonas aeruginosa PAO1; assay: Inhibition of beta-lactamase activity in Pseudomonas aeruginosa PAO1 deltaDdeltsDh2deltaDh3 assessed as MIC for cefpodoxime antibacterial activity at 16 mg/L by broth microdilution method
[26] = test system: Pseudomonas aeruginosa PAO1; assay: Inhibition beta lactamase PDC-1 in Pseudomonas aeruginosa PAO1 assessed as inactivation efficiency by measuring acylation rate (k2/K) using nitrocefin as substrate measured by 96 well microtitre plate
[27] = test system: Pseudomonas aeruginosa PAO1; assay: Inhibition of beta-lactamase activity in Pseudomonas aeruginosa PAO1 assessed as MIC for cefpodoxime antibacterial activity at 16 mg/L by broth microdilution method
[28] = test system: Pseudomonas aeruginosa PAO1; assay: Inhibition of beta-lactamase activity in Pseudomonas aeruginosa PAO1 deltadacBdeltaampD assessed as MIC for cefpodoxime antibacterial activity at 4 mg/L by broth microdilution method
[29] = test system: Pseudomonas aeruginosa PAO1; assay: Inhibition of beta-lactamase activity in Pseudomonas aeruginosa PAO1 PAHUAC-14 (ST-966) assessed as MIC for cefpodoxime antibacterial activity at 4 mg/L by broth microdilution method
[30] = test system: Pseudomonas aeruginosa PAO1; assay: Inhibition of beta-lactamase activity in Pseudomonas aeruginosa PAO1 deltaC+pUCP-(PDC-5) assessed as MIC for cefpodoxime antibacterial activity at 16 mg/L by broth microdilution method
[31] = Inhibition beta lactamase PDC-1 in Pseudomonas aeruginosa PAO1 assessed as apparent inhibition constant using nitrocefin as substrate measured by 96 well microtitre plate; details: read-out: Ki(app)
[32] = test system: Pseudomonas aeruginosa PAO1; assay: Inhibition of beta-lactamase activity in Pseudomonas aeruginosa PAO1 deltaC+pUCP-(PDC-5) assessed as MIC for cefpodoxime antibacterial activity at 4 mg/L by broth microdilution method
[33] = test system: Pseudomonas aeruginosa PAO1; assay: Inhibition of beta-lactamase activity in Pseudomonas aeruginosa PAO1 13/09-018 (ST-175) assessed as MIC for cefpodoxime antibacterial activity at 16 mg/L by broth microdilution method
[34] = test system: Pseudomonas aeruginosa PAO1; assay: Inhibition beta lactamase PDC-1 in Pseudomonas aeruginosa PAO1 assessed as deacylation off-rate using nitrocefin as substrate at 30 mins measured by 96 well microtitre plate
[35] = test system: Pseudomonas aeruginosa PAO1; assay: Inhibition of beta-lactamase activity in Pseudomonas aeruginosa PAO1 deltadacBdeltadacC assessed as MIC for cefpodoxime antibacterial activity at 4 mg/L by broth microdilution method
[36] = test system: Pseudomonas aeruginosa PAO1; assay: Inhibition of beta-lactamase activity in Pseudomonas aeruginosa PAO1 deltadacB assessed as MIC for cefpodoxime antibacterial activity at 4 mg/L by broth microdilution method
[37] = test system: Pseudomonas aeruginosa PAO1; assay: Inhibition of beta-lactamase activity in Pseudomonas aeruginosa PAO1 23/14-053 (ST-309) assessed as MIC for cefpodoxime antibacterial activity at 4 mg/L by broth microdilution method
[38] = test system: Pseudomonas aeruginosa PAO1; assay: Inhibition of beta-lactamase activity in Pseudomonas aeruginosa PAO1 assessed as MIC for cefpodoxime antibacterial activity at 4 mg/L by broth microdilution method
[39] = test system: Pseudomonas aeruginosa PAO1; assay: Inhibition of beta-lactamase activity in Pseudomonas aeruginosa PAO1 deltaC assessed as MIC for cefpodoxime antibacterial activity at 4 mg/L by broth microdilution method
[40] = test system: Pseudomonas aeruginosa PAO1; assay: Inhibition of beta-lactamase activity in Pseudomonas aeruginosa PAO1 23/14-053 (ST-309) assessed as MIC for cefpodoxime antibacterial activity at 16 mg/L by broth microdilution method
[41] = test system: Pseudomonas aeruginosa PAO1; assay: Inhibition beta lactamase PDC-1 in Pseudomonas aeruginosa PAO1 assessed as maximum rate of inactivation using nitrocefin as substrate measured by 96 well microtitre plate
[42] = test system: Pseudomonas aeruginosa PAO1; assay: Inhibition of beta-lactamase activity in Pseudomonas aeruginosa PAO1 36/14-210 (ST-235) assessed as MIC for cefpodoxime antibacterial activity at 4 mg/L by broth microdilution method
[43] = test system: Pseudomonas aeruginosa PAO1; assay: Inhibition of beta-lactamase activity in Pseudomonas aeruginosa PAO1 deltadacBdeltadacC assessed as MIC for cefpodoxime antibacterial activity at 16 mg/L by broth microdilution method
[44] = test system: Pseudomonas aeruginosa PAO1; assay: Inhibition of beta-lactamase activity in Pseudomonas aeruginosa PAO1 53/22-113 (ST-244) assessed as MIC for cefpodoxime antibacterial activity at 16 mg/L by broth microdilution method
[45] = test system: Pseudomonas aeruginosa PAO1; assay: Inhibition of beta-lactamase activity in Pseudomonas aeruginosa PAO1 deltaC assessed as MIC for cefpodoxime antibacterial activity at 16 mg/L by broth microdilution method

C[C@]1(Cn2ccnn2)[C@H](C(=O)O)N2C(=O)C[C@H]2S1(=O)=O [TAZOBACTAM]
IC50 [1]: 844 nM

C[C@]1(COC(=O)Cc2ccc(O)c(O)c2)[C@H](C(=O)O)N2C(=O)/C(=C/c3cc(Br)ccn3)[C@H]2S1(=O)=O
inhibition [2]: inactive | MIC [3]: 1 µg/mL (≈ 1.76 µM) | T1/2 [4]: 1.75 h | MIC [5]: 1 µg/mL (≈ 1.76 µM) | MIC [6]: 4 µg/mL (≈ 7.05 µM) | MIC [7]: 1 µg/mL (≈ 1.76 µM) | MIC [8]: 1 µg/mL (≈ 1.76 µM) | inhibition [9]: inactive | MIC [10]: 1 µg/mL (≈ 1.76 µM) | MIC [11]: 1 µg/mL (≈ 1.76 µM) | MIC [12]: 1 µg/mL (≈ 1.76 µM) | MIC [13]: 2 µg/mL (≈ 3.53 µM) | MIC [14]: 8 µg/mL (≈ 14.1 µM) | MIC [15]: 2 µg/mL (≈ 3.53 µM) | MIC [16]: 2 µg/mL (≈ 3.53 µM) | MIC [17]: 1 µg/mL (≈ 1.76 µM) | K [18]: 20.9 10^5/M/s | MIC [19]: 0.5 µg/mL (≈ 0.881 µM) | MIC [20]: 2 µg/mL (≈ 3.53 µM) | MIC [21]: 8 µg/mL (≈ 14.1 µM) | MIC [22]: 1 µg/mL (≈ 1.76 µM) | MIC [23]: 0.5 µg/mL (≈ 0.881 µM) | MIC [24]: 8 µg/mL (≈ 14.1 µM) | MIC [25]: 1 µg/mL (≈ 1.76 µM) | k2/K inactivation efficiency [26]: 6.2 M⁻¹ s⁻¹ | MIC [27]: 1 µg/mL (≈ 1.76 µM) | MIC [28]: 4 µg/mL (≈ 7.05 µM) | MIC [29]: 4 µg/mL (≈ 7.05 µM) | MIC [30]: 1 µg/mL (≈ 1.76 µM) | Ki [31]: 14 nM | MIC [32]: 2 µg/mL (≈ 3.53 µM) | MIC [33]: 8 µg/mL (≈ 14.1 µM) | K [34]: 7 10^-2/min | IC50 [1]: 0.9 nM | MIC [35]: 1 µg/mL (≈ 1.76 µM) | MIC [36]: 1 µg/mL (≈ 1.76 µM) | MIC [37]: 2 µg/mL (≈ 3.53 µM) | MIC [38]: 1 µg/mL (≈ 1.76 µM) | MIC [39]: 1 µg/mL (≈ 1.76 µM) | MIC [40]: 2 µg/mL (≈ 3.53 µM) | Kinact [41]: 0.032 s⁻¹ | MIC [42]: 16 µg/mL (≈ 28.2 µM) | MIC [43]: 0.5 µg/mL (≈ 0.881 µM) | MIC [44]: 4 µg/mL (≈ 7.05 µM) | MIC [45]: 1 µg/mL (≈ 1.76 µM)

O=C(O)[C@H]1/C(=C/CO)O[C@@H]2CC(=O)N21 [CLAVULANIC ACID]
IC50 [1]: > 200000 nM

CC1(C)[C@H](C(=O)O)N2C(=O)C[C@H]2S1(=O)=O [SULBACTAM]
IC50 [1]: 4370 nM

NC(=O)[C@@H]1CC[C@@H]2CN1C(=O)N2OS(=O)(=O)O [AVIBACTAM SODIUM]
MIC [3]: 2 µg/mL | T1/2 [4]: 0.467 h | MIC [5]: 1 µg/mL | MIC [6]: 4 µg/mL | MIC [7]: 1 µg/mL | MIC [8]: 0.5 µg/mL | MIC [10]: 1 µg/mL | MIC [11]: 1 µg/mL | MIC [12]: 1 µg/mL | MIC [13]: 2 µg/mL | MIC [14]: 8 µg/mL | MIC [15]: 4 µg/mL | MIC [16]: 2 µg/mL | MIC [17]: 1 µg/mL | MIC [19]: 0.5 µg/mL | MIC [20]: 4 µg/mL | MIC [21]: 8 µg/mL | MIC [22]: 1 µg/mL | MIC [23]: 0.5 µg/mL | MIC [24]: 4 µg/mL | MIC [25]: 1 µg/mL | k2/K inactivation efficiency [26]: 1370 M⁻¹ s⁻¹ | MIC [27]: 1 µg/mL | MIC [28]: 4 µg/mL | MIC [29]: 4 µg/mL | MIC [30]: 1 µg/mL | Ki [31]: 990 nM | MIC [32]: 2 µg/mL | MIC [33]: 8 µg/mL | K [34]: 2.6 10^-2/min | IC50 [1]: 51 nM | MIC [35]: 1 µg/mL | MIC [36]: 1 µg/mL | MIC [37]: 1 µg/mL | MIC [38]: 1 µg/mL | MIC [39]: 1 µg/mL | MIC [40]: 1 µg/mL | MIC [42]: 8 µg/mL | MIC [43]: 0.5 µg/mL | MIC [44]: 4 µg/mL | MIC [45]: 1 µg/mL

Reference: ChEMBL document CHEMBL5030517, “6-Halopyridylmethylidene Penicillin-Based Sulfones Efficiently Inactivate the Natural Resistance of Pseudomonas aeruginosa to β-Lactam Antibiotics” (J Med Chem, 2021)
